From US20090298834A1, “4-(AMINOMETHYL)CYCLOHEXANAMINE DERIVATIVES AS CALCIUM CHANNEL BLOCKERS” (priority 2008, published 2009)

Columns and labels:
[1] = target: T1, human α1H T-type channels (Homo sapiens, UniProt O95180); assay: T-type calcium channel block, whole cell patch clamp (α1H); format: cell-based; settings: HEK cells stably expressing human α1H; mainly non-inactivated protocol; values above 10 μM represented as 10 μM
T1 construct: expressed in transfected cells; host or cells: HEK 293
Experimental: (§1) T-type calcium channel blocking activity was assayed in human embryonic kidney cells, HEK 293, stably transfected with the T-type calcium channel subunits. Briefly, cells were cultured in Dulbecco's modified eagle medium (DMEM) supplemented with 10% fetal bovine serum, 200 U/ml penicillin and 0.2 mg/ml streptomycin at 37° C. with 5% CO2. At 85% confluency cells were split with 0.25% trypsin/1 mM EDTA and plated at 10% confluency on glass coverslips. At 12 hours the medium was replaced and the cells stably transfected using a standard calcium phosphate protocol and the appropriate calcium channel cDNA's. Fresh DMEM was supplied and the cells transferred to 28° C./5% CO2. Cells were incubated for 1 to 2 days prior to whole cell recording.
(§2) Standard patch-clamp techniques were employed to identify blockers of T-type currents. Briefly, previously described HEK cell lines stably expressing human α1G, α1H and α1I T-type channels were used for all the recordings (passage #: 4-20, 37° C., 5% CO2). Whole cell patch clamp experiments were performed using an Axopatch 200B amplifier (Axon Instruments, Burlingame, Calif.) linked to a personal computer equipped with pCLAMP software. Data were analyzed using Clampfit (Axon Instruments) and SigmaPlot 4.0 (Jandel Scientific). To obtain T-type currents, plastic dishes containing semi-confluent cells were positioned on the stage of a ZEISS AXIOVERT S100 microscope after replacing the culture medium with external solution (see below). Whole-cell patches were obtained using pipettes (borosilicate glass with filament, O.D.: 1.5 mm, I.D.: 0.86 mm, 10 cm length), fabricated on a SUTTER P-97 puller with resistance values of ˜5 MΩ (see below for internal solution).
(§3) In the non-inactivating protocol, the holding potential is set at −110 mV and with a pre-pulse at −100 mV for 1 second prior to the test pulse at −40 mV for 50 ms. In the inactivation protocol, the pre-pulse is at approximately −85 mV for 1 second, which inactivates about 15% of the T-type channels.
(§4) Test compounds were dissolved in external solution, 0.1-0.01% DMSO. After 10 min rest, they were applied by gravity close to the cell using a WPI microfil tubing. The “non-inactivated” pre-pulse was used to examine the resting block of a compound. The “inactivated” protocol was employed to study voltage-dependent block. However, the initial data shown below were mainly obtained using the non-inactivated protocol only. . IC50 values are shown for various compounds of the invention in Table 4 for the drug of interest. Values are shown in μM and values above 10 μM are simply represented as 10 μM.

[2] = target: T2, human α1G T-type channels (Homo sapiens, UniProt O43497); assay: T-type calcium channel block, whole cell patch clamp (α1G); format: cell-based; settings: HEK cells stably expressing human α1G; mainly non-inactivated protocol; values above 10 μM represented as 10 μM, values below 0.30 μM represented as 0.30 μM
T2 construct: expressed in transfected cells; host or cells: HEK 293
Experimental: as §1, §2, §3, §4

T1 sequence (O95180 whole entry): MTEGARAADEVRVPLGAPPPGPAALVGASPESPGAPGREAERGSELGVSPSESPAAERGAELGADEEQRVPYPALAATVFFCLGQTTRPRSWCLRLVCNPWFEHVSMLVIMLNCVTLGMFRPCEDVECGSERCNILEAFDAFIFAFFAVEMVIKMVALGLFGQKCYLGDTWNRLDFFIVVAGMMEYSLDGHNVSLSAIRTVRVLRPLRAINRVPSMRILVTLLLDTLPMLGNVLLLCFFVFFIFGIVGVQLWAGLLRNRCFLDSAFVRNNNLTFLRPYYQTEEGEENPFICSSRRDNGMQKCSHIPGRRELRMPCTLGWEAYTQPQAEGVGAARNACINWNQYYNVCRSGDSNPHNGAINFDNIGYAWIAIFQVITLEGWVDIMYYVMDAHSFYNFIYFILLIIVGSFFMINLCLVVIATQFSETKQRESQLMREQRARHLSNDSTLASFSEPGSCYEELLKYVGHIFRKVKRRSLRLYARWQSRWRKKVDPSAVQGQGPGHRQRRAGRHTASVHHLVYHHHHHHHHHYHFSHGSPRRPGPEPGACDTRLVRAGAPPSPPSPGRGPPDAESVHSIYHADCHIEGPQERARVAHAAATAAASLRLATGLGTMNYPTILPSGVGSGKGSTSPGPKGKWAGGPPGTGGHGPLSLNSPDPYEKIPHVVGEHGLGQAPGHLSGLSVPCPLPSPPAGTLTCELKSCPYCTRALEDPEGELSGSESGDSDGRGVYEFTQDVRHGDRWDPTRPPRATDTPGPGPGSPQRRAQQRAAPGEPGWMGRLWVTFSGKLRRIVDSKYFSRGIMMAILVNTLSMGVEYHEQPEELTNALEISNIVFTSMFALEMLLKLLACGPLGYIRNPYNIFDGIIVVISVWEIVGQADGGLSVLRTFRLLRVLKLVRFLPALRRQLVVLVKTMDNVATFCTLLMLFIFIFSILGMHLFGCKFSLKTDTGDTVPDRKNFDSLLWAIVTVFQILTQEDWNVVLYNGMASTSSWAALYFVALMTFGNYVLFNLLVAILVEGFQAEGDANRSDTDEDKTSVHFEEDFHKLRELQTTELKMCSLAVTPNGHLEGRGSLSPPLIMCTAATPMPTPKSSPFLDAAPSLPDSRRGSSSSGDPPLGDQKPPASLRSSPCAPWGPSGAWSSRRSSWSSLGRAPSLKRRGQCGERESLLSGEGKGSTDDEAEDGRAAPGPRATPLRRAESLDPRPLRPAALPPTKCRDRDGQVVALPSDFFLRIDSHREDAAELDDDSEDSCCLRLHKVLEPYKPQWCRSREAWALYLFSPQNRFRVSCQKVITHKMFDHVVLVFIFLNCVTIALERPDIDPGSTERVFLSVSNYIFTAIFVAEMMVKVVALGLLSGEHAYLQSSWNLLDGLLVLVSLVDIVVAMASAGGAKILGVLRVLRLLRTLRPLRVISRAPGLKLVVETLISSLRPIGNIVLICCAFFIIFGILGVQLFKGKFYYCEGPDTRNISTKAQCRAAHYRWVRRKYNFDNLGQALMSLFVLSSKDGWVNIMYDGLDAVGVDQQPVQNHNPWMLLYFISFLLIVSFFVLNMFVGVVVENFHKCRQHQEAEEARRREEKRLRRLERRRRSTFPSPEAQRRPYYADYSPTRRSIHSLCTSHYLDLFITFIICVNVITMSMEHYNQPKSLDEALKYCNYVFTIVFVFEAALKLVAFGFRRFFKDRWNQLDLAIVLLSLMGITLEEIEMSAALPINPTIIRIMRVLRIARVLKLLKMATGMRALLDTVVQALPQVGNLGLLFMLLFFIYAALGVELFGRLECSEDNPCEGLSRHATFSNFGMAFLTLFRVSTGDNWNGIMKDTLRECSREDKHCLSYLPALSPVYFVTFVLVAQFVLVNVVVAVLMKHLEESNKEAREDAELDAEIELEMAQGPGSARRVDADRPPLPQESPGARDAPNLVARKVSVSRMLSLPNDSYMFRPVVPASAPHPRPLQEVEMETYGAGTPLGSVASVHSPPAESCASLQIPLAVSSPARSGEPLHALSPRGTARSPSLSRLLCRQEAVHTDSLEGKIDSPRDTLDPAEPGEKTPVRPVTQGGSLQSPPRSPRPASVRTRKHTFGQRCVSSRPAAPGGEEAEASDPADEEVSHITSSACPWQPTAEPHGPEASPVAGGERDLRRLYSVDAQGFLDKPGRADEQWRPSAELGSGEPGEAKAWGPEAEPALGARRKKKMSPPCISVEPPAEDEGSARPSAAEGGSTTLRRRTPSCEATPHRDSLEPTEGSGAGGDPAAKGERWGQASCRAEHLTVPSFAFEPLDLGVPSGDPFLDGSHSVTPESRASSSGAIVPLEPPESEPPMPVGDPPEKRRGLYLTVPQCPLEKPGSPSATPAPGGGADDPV
T2 sequence (O43497 whole entry): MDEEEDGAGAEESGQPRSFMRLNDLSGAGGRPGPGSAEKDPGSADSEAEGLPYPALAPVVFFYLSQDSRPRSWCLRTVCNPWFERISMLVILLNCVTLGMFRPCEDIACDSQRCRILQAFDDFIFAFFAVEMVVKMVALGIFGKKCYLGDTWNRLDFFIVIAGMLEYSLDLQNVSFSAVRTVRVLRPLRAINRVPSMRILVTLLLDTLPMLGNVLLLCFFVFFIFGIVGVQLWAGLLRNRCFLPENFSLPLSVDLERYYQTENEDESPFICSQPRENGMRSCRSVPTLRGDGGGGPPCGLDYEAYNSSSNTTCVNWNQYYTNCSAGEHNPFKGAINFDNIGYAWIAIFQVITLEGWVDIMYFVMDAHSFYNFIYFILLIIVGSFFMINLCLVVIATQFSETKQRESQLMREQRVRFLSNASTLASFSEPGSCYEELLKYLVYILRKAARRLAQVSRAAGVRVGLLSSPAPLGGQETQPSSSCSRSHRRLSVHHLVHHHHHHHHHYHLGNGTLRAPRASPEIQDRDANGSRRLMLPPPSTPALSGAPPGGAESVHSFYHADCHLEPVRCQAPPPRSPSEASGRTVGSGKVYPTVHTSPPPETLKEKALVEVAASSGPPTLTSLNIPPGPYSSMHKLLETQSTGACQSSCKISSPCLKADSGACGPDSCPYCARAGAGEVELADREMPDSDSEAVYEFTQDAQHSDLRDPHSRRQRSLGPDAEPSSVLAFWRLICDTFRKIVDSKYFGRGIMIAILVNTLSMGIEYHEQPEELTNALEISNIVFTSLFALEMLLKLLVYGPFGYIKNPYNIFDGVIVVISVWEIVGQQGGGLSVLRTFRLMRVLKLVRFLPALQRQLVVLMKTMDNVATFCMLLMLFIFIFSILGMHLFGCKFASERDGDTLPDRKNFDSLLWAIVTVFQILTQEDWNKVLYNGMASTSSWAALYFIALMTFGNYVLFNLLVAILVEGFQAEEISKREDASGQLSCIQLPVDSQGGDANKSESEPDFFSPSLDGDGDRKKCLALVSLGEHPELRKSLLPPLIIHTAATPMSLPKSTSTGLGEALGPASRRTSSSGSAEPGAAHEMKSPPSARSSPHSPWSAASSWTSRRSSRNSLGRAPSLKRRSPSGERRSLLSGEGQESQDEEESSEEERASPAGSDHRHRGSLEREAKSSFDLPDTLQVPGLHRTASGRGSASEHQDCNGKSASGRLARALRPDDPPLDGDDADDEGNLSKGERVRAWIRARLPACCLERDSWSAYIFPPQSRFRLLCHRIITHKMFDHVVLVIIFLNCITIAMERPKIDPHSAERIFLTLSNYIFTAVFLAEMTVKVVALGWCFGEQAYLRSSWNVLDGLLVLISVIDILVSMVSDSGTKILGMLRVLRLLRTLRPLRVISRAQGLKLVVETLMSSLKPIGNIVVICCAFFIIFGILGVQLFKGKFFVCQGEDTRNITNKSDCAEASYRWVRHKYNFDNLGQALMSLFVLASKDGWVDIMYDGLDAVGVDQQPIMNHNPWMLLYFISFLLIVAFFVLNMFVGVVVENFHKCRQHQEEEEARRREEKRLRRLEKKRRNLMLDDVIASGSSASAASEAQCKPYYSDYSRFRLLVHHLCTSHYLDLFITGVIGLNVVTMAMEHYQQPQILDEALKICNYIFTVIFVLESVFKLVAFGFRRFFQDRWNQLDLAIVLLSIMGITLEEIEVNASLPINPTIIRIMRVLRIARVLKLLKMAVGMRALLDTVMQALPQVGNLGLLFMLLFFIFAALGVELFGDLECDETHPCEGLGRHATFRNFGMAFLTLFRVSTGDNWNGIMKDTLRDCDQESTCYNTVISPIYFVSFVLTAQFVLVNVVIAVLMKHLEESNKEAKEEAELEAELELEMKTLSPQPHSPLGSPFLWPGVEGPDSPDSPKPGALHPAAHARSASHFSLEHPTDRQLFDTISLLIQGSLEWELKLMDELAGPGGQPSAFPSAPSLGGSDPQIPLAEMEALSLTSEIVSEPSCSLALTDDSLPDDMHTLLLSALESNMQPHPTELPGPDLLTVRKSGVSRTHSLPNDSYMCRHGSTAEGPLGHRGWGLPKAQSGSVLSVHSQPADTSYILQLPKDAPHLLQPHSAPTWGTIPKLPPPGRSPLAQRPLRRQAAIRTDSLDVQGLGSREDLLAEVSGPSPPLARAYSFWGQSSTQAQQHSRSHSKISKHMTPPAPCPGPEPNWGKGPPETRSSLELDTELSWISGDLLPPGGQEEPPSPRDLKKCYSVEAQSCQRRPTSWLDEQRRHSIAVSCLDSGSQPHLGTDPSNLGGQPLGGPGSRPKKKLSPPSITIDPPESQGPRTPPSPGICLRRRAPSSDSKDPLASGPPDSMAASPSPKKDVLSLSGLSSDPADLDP

| IC50 [1] | IC50 [2] | SMILES |
| --- | --- | --- |
| 1320 nM | 2920 nM | CC(C)(C)NC(=O)CN[C@H]1CC[C@@H](CNC(=O)c2cccc(Cl)c2)CC1 [Compound 179, N-(((1s,4s)-4-(2-(tert-butylamino)-2-oxoethylamino)cyclohexyl)methyl)-3-chlorobenzamide] |
| 1600 nM | 4050 nM | COc1cc(F)cc(C(=O)NC[C@H]2CC[C@H](NCC(=O)N3CCCC3(C)C)CC2)c1 [Compound 209, N-(((1r,4r)-4-(2-(2,2-dimethylpyrrolidin-1-yl)-2-oxoethylamino)cyclohexyl)methyl)-3-fluoro-5-methoxybenzamide] |
| 330 nM | 3650 nM | COc1cc(OC)cc(C(=O)NC[C@H]2CC[C@@H](NCC(=O)NC(C)(C)C)CC2)c1 [Compound 181, N-(((1s,4s)-4-(2-(tert-butylamino)-2-oxoethylamino)cyclohexyl)methyl)-3,5-dimethoxybenzamide] |
| ≥ 10000 nM | ≤ 300 nM | Cc1ccc(-c2csc(NC(=O)C[C@H]3CC[C@@H](NCC(O)(C(F)(F)F)C(F)(F)F)CC3)n2)cc1 [Compound 152, N-(4-p-tolylthiazol-2-yl)-2-(cis-4-(3,3,3-trifluoro-2-hydroxy-2-(trifluoromethyl)propylamino)cyclohexyl)acetamide] |
| 60 nM | ≤ 300 nM | CC(C)(C)NC(=O)CN[C@H]1CC[C@@H](CNC(=O)c2cc(Cl)cc(Cl)c2)CC1 [Compound 187, N-(((1s,4s)-4-(2-(tert-butylamino)-2-oxoethylamino)cyclohexyl)methyl)-3,5-dichlorobenzamide] |
| ≥ 10000 nM | 480 nM | Cc1ccc(-c2csc(NC(=O)C[C@H]3CC[C@H](NCC(O)(C(F)(F)F)C(F)(F)F)CC3)n2)cc1 [Compound 151, N-(4-p-tolylthiazol-2-yl)-2-(trans-4-(3,3,3-trifluoro-2-hydroxy-2-(trifluoromethyl)propylamino)cyclohexyl)acetamide] |
| 2390 nM | 5610 nM | COc1cc(F)cc(C(=O)NC[C@H]2CC[C@H](NCC(=O)N(C)C(C)(C)C)CC2)c1 [Compound 210, N-(((1r,4r)-4-(2-(tert-butyl(methyl)amino)-2-oxoethylamino)cyclohexyl)methyl)-3-fluoro-5-methoxybenzamide] |

Further lines, the compound ahead of its results:

| SMILES | IC50 [1] | IC50 [2] |
| --- | --- | --- |
| CC(C)(C)CC(=O)NCCN[C@H]1CC[C@H](CNC(=O)c2cc(C(F)(F)F)cc(C(F)(F)F)c2)CC1 [Compound 101, N-((trans-4-(2-(3,3-dimethylbutanamido)ethylamino)cyclohexyl)methyl)-3,5-bis(trifluoromethyl)benzamide] | 2050 nM | 1510 nM |
| CC(C)(C)c1nc(CN[C@H]2CC[C@H](CNC(=O)c3cc(C(F)(F)F)cc(C(F)(F)F)c3)CC2)no1 [Compound 66, N-((trans-4-((5-tert-butyl-1,2,4-oxadiazol-3-yl)methylamino)cyclohexyl)methyl)-3,5-bis(trifluoromethyl)benzamide] | 3050 nM | 1340 nM |
| O=C(NC[C@H]1CC[C@@H](NCC(=O)N2CCCC2)CC1)c1cc(C(F)(F)F)cc(C(F)(F)F)c1 [Compound 39, N-((cis-4-(2-oxo-2-(pyrrolidin-1-yl)ethylamino)cyclohexyl)methyl)-3,5-bis(trifluoromethyl)benzamide] | 790 nM | 1330 nM |
| COc1cccnc1CN[C@H]1CC[C@@H](CNC(=O)c2cc(C(F)(F)F)cc(C(F)(F)F)c2)CC1 [Compound 11, N-((cis-4-((3-methoxypyridin-2-yl)methylamino)cyclohexyl)methyl)-3,5-bis(trifluoromethyl)benzamide] | 2330 nM | 1570 nM |
| CC(C)(C)OC(=O)N[C@H]1CC[C@@H](CC(=O)Nc2cc(C(F)(F)F)cc(C(F)(F)F)c2)CC1 [Compound 105, tert-butyl cis-4-(2-(3,5-bis(trifluoromethyl)phenylamino)-2-oxoethyl)cyclohexylcarbamate] | 6070 nM | 650 nM |
| CC(C)CNC(=O)CN[C@H]1CC[C@H](CNC(=O)c2cc(C(F)(F)F)cc(C(F)(F)F)c2)CC1 [Compound 75, N-((trans-4-(2-(isobutylamino)-2-oxoethylamino)cyclohexyl)methyl)-3,5-bis(trifluoromethyl)benzamide] | 430 nM | 810 nM |
| Cc1cccc(CN[C@H]2CC[C@@H](CNC(=O)c3cc(F)cc(C(F)(F)F)c3)CC2)c1O [Compound 18, 3-fluoro-N-((cis-4-(2-hydroxy-3-methylbenzylamino)cyclohexyl)methyl)-5-(trifluoromethyl)benzamide] | 1370 nM | 460 nM |
| O=C(NC[C@H]1CC[C@H](NCC(=O)N2CCC(F)(F)C2)CC1)c1cc(C(F)(F)F)cc(C(F)(F)F)c1 [Compound 61, N-((trans-4-(2-(3,3-difluoropyrrolidin-1-yl)-2-oxoethylamino)cyclohexyl)methyl)-3,5-bis(trifluoromethyl)benzamide] | 1730 nM | 1590 nM |
| O=C(NC[C@H]1CC[C@@H](NCc2cccnc2F)CC1)c1cc(F)cc(C(F)(F)F)c1 [Compound 17, 3-fluoro-N-((cis-4-((2-fluoropyridin-3-yl)methylamino)cyclohexyl)methyl)-5-(trifluoromethyl)benzamide] | 4940 nM | 7730 nM |
| O=C(NC[C@H]1CC[C@H](NC(=O)[C@@H]2CC[C@H](c3ccccc3)N2)CC1)c1cc(C(F)(F)F)cc(C(F)(F)F)c1 [Compound 135, (2S,5R)-N-(trans-4-((3,5-bis(trifluoromethyl)benzamido)methyl)cyclohexyl)-5-phenylpyrrolidine-2-carboxamide] | 5650 nM | 1110 nM |
| O=C(CN[C@H]1CC[C@H](CNC(=O)c2cc(C(F)(F)F)cc(C(F)(F)F)c2)CC1)NN1CCCCC1 [Compound 60, N-((trans-4-(2-oxo-2-(piperidin-1-ylamino)ethylamino)cyclohexyl)methyl)-3,5-bis(trifluoromethyl)benzamide] | 1890 nM | 1300 nM |
| N[C@H]1CCCC[C@H]1C(=O)N[C@H]1CC[C@H](CC(=O)Nc2cc(C(F)(F)F)cc(C(F)(F)F)c2)CC1 [Compound 122, (1R,2S)-2-amino-N-(trans-4-(2-(3,5-bis(trifluoromethyl)phenylamino)-2-oxoethyl)cyclohexyl)cyclohexanecarboxamide] | 3620 nM | 840 nM |
| CCC1CCCN1C(=O)CN[C@H]1CC[C@H](CNC(=O)c2cc(C(F)(F)F)cc(C(F)(F)F)c2)CC1 (stereo partly drawn) [Compound 68, N-((trans-4-(2-(2-ethylpyrrolidin-1-yl)-2-oxoethylamino)cyclohexyl)methyl)-3,5-bis(trifluoromethyl)benzamide] | 560 nM | ≤ 300 nM |
| O=C(CC1CC1)NCCN[C@H]1CC[C@H](CNC(=O)c2cc(C(F)(F)F)cc(C(F)(F)F)c2)CC1 [Compound 103, N-((trans-4-(2-(2-cyclopropylacetamido)ethylamino)cyclohexyl)methyl)-3,5-bis(trifluoromethyl)benzamide] | 2080 nM | – |
| CC(C)(C)OC(=O)NCCN[C@H]1CC[C@@H](CNC(=O)c2cc(Cl)cc(C(F)(F)F)c2)CC1 [Compound 99, tert-butyl 2-(cis-4-((3-chloro-5-(trifluoromethyl)benzamido)methyl)cyclohexylamino)ethylcarbamate] | 440 nM | – |
